Test results: ChEMBL document CHEMBL3885881, “DrugMatrix”

Organism: Rattus norvegicus
Assay: DrugMatrix - Regimen: Daily Repeat
Type: toxicity, organism-based, Sprague-Dawley
Design: regimen Daily Repeat, gender Male, age 6-8 weeks
Conditions: in vivo, po, route oral GAVAGE, vehicle 100 % WATER; for ABSOLUTE BASOPHIL / ABSOLUTE EOSINOPHIL / ABSOLUTE LYMPHOCYTE / ABSOLUTE MONOCYTE / ABSOLUTE SEGMENTED NEUTROPHIL / BASOPHIL / EOSINOPHIL / ERYTHROCYTE COUNT / HEMATOCRIT / HEMOGLOBIN / LEUKOCYTE COUNT / LYMPHOCYTE / MEAN CORPUSCULAR HEMOGLOBIN / MEAN CORPUSCULAR HEMOGLOBIN CONCENTRATION / MEAN CORPUSCULAR VOLUME / MONOCYTE / NEUTROPHIL / NUCLEATED RED BLOOD CELLS / PLATELET COUNT: tissue Blood; for ALANINE AMINOTRANSFERASE / ALBUMIN / ALKALINE PHOSPHATASE / ASPARTATE AMINOTRANSFERASE / BLOOD UREA NITROGEN / CARBON DIOXIDE / CHLORIDE / CHOLESTEROL / CREATINE PHOSPHOKINASE / CREATININE / GLUCOSE / LACTATE DEHYDROGENASE / LIPASE / PHOSPHORUS / POTASSIUM / SODIUM / TOTAL BILIRUBIN / TOTAL PROTEIN / URIC ACID: tissue Plasma
[1] = 120 mg/kg, 120 h, dose level Low, time 5 day
[2] = 1200 mg/kg, 72 h, dose level High, time 3 day
[3] = 1200 mg/kg, 120 h, dose level High, time 5 day

Cc1onc(-c2ccccc2Cl)c1C(=O)N[C@@H]1C(=O)N2[C@@H]1SC(C)(C)[C@@H]2C(=O)O [CLOXACILLIN]
ABSOLUTE BASOPHIL [1]: 0 CELLS/uL | ABSOLUTE EOSINOPHIL [1]: 0 CELLS/uL | ABSOLUTE LYMPHOCYTE [1]: 14591.67 CELLS/uL | ABSOLUTE MONOCYTE [1]: 338 CELLS/uL | ABSOLUTE SEGMENTED NEUTROPHIL [1]: 1970.33 CELLS/uL | BASOPHIL [1]: 0% | EOSINOPHIL [1]: 0% | ERYTHROCYTE COUNT [1]: 5.42 x10E6/uL | HEMATOCRIT [1]: 34.13% | HEMOGLOBIN [1]: 13.57 G/DL | LEUKOCYTE COUNT [1]: 16.9 x10E3/uL | LYMPHOCYTE [1]: 86.33% | MEAN CORPUSCULAR HEMOGLOBIN [1]: 25.07 pg | MEAN CORPUSCULAR HEMOGLOBIN CONCENTRATION [1]: 39.73 G/DL | MEAN CORPUSCULAR VOLUME [1]: 62.97 fL | MONOCYTE [1]: 2% | NEUTROPHIL [1]: 11.67% | NUCLEATED RED BLOOD CELLS [1]: 0 /100WBC | PLATELET COUNT [1]: 1237.33 x10E3/uL | ALANINE AMINOTRANSFERASE [1]: 51.33 u/L | ALBUMIN [1]: 4.13 G/DL | ALKALINE PHOSPHATASE [1]: 349.67 u/L | ASPARTATE AMINOTRANSFERASE [1]: 77.33 u/L | BLOOD UREA NITROGEN [1]: 15.67 mg/dL | CARBON DIOXIDE [1]: 27 mmol/L | CHLORIDE [1]: 101.33 MEQ/L | CHOLESTEROL [1]: 69.67 mg/dL | CREATINE PHOSPHOKINASE [1]: 381.33 u/L | CREATININE [1]: 0.14 mg/dL | GLUCOSE [1]: 149.67 mg/dL | LACTATE DEHYDROGENASE [1]: 190 u/L | LIPASE [1]: 8.33 u/L | PHOSPHORUS [1]: 11.87 mg/dL | POTASSIUM [1]: 6.69 MEQ/L | SODIUM [1]: 143.53 MEQ/L | TOTAL BILIRUBIN [1]: 0.13 mg/dL | TOTAL PROTEIN [1]: 5.77 G/DL | URIC ACID [1]: 1.5 mg/dL | ABSOLUTE BASOPHIL [2]: 0 CELLS/uL | ABSOLUTE EOSINOPHIL [2]: 0 CELLS/uL | ABSOLUTE LYMPHOCYTE [2]: 9313 CELLS/uL | ABSOLUTE MONOCYTE [2]: 140.33 CELLS/uL | ABSOLUTE SEGMENTED NEUTROPHIL [2]: 1013.33 CELLS/uL | BASOPHIL [2]: 0% | EOSINOPHIL [2]: 0% | ERYTHROCYTE COUNT [2]: 4.48 x10E6/uL | HEMATOCRIT [2]: 28.27% | HEMOGLOBIN [2]: 11.27 G/DL | LEUKOCYTE COUNT [2]: 10.47 x10E3/uL | LYMPHOCYTE [2]: 90% | MEAN CORPUSCULAR HEMOGLOBIN [2]: 25.37 pg | MEAN CORPUSCULAR HEMOGLOBIN CONCENTRATION [2]: 39.93 G/DL | MEAN CORPUSCULAR VOLUME [2]: 63.4 fL | MONOCYTE [2]: 1% | NEUTROPHIL [2]: 9% | NUCLEATED RED BLOOD CELLS [2]: 0 /100WBC | PLATELET COUNT [2]: 825.33 x10E3/uL | ALANINE AMINOTRANSFERASE [2]: 72 u/L | ALBUMIN [2]: 4.03 G/DL | ALKALINE PHOSPHATASE [2]: 414 u/L | ASPARTATE AMINOTRANSFERASE [2]: 89.67 u/L | BLOOD UREA NITROGEN [2]: 15 mg/dL | CARBON DIOXIDE [2]: 22.33 mmol/L | CHLORIDE [2]: 102.67 MEQ/L | CHOLESTEROL [2]: 86.33 mg/dL | CREATINE PHOSPHOKINASE [2]: 306 u/L | CREATININE [2]: 0.16 mg/dL | GLUCOSE [2]: 144.67 mg/dL | LACTATE DEHYDROGENASE [2]: 170 u/L | LIPASE [2]: 10.67 u/L | PHOSPHORUS [2]: 12.23 mg/dL | POTASSIUM [2]: 6.82 MEQ/L | SODIUM [2]: 143.7 MEQ/L | TOTAL BILIRUBIN [2]: 0.13 mg/dL | TOTAL PROTEIN [2]: 5.7 G/DL | URIC ACID [2]: 1.7 mg/dL | ABSOLUTE BASOPHIL [3]: 0 CELLS/uL | ABSOLUTE EOSINOPHIL [3]: 148.67 CELLS/uL | ABSOLUTE LYMPHOCYTE [3]: 18945 CELLS/uL | ABSOLUTE MONOCYTE [3]: 0 CELLS/uL | ABSOLUTE SEGMENTED NEUTROPHIL [3]: 1139.67 CELLS/uL | BASOPHIL [3]: 0% | EOSINOPHIL [3]: 0.67% | ERYTHROCYTE COUNT [3]: 5.75 x10E6/uL | HEMATOCRIT [3]: 35.27% | HEMOGLOBIN [3]: 13.97 G/DL | LEUKOCYTE COUNT [3]: 20.23 x10E3/uL | LYMPHOCYTE [3]: 93.67% | MEAN CORPUSCULAR HEMOGLOBIN [3]: 24.3 pg | MEAN CORPUSCULAR HEMOGLOBIN CONCENTRATION [3]: 39.6 G/DL | MEAN CORPUSCULAR VOLUME [3]: 61.33 fL | MONOCYTE [3]: 0% | NEUTROPHIL [3]: 5.67% | NUCLEATED RED BLOOD CELLS [3]: 0 /100WBC | PLATELET COUNT [3]: 1362 x10E3/uL | ALANINE AMINOTRANSFERASE [3]: 67 u/L | ALBUMIN [3]: 4.2 G/DL | ALKALINE PHOSPHATASE [3]: 356 u/L | ASPARTATE AMINOTRANSFERASE [3]: 78 u/L | BLOOD UREA NITROGEN [3]: 17.67 mg/dL | CARBON DIOXIDE [3]: 26 mmol/L | CHLORIDE [3]: 102.67 MEQ/L | CHOLESTEROL [3]: 75.33 mg/dL | CREATINE PHOSPHOKINASE [3]: 220.67 u/L | CREATININE [3]: 0.15 mg/dL | GLUCOSE [3]: 159.67 mg/dL | LACTATE DEHYDROGENASE [3]: 104 u/L | LIPASE [3]: 9.33 u/L | PHOSPHORUS [3]: 11.63 mg/dL | POTASSIUM [3]: 6.63 MEQ/L | SODIUM [3]: 144.07 MEQ/L | TOTAL BILIRUBIN [3]: 0.13 mg/dL | TOTAL PROTEIN [3]: 6.17 G/DL | URIC ACID [3]: 2 mg/dL
